Assay results as given in patent publication US8232267B2, “Porphyrin catalysts and methods of use thereof” (The Trustees of Princeton University, priority 2006, dated 2012).

Experiment: Stopped-flow spectrophotometric analysis of kinetics of peroxynitrite decomposition
Type: biochemical
Details: 100 mM phosphate buffer pH 7.4, 25° C.
Source text: Peroxynitrite was synthesized from hydrogen peroxide and nitrous acid using an sp250i syringe pump by modification of published procedures. See, Shimanovich, R.; Groves, J. T., Mechanisms of Peroxynitrite Decomposition Catalyzed by FeTMPS, a Bioactive Sulfonated Iron Porphyrin. Archives of Biochemistry and Biophysics 2001, 387, (2), 307-317; Saha, A.; Goldstein, S.; Cabelli, D.; Czapski, G., Determination of optimal conditions for synthesis of peroxynitrite by mixing acidified hydrogen peroxide with nitrite. Free Radical Biology & Medicine 1998, 24, (4), 653-659; and Uppu, R. M.; Squadrito, G. L.; Cueto, R.; Pryor, W. A., Selecting the most appropriate synthesis of peroxynitrite. […] Peroxynitrite concentrations were determined spectrophotometrically at 302 nm (ε302=1670 L mol^−1 cm^−1). […] In this manner, the concentration of peroxynitrite was determined to be 95 mM. […] Nitrite and nitrate anions were detected and quantified by measuring the absorbance decrease (indirect UV detection) at 310 nm. […] Concentrations of hydrogen peroxide in the peroxynitrite before and after treatment with MnO2 were measured by PeroXOquant Quantitative peroxide assay kit (Pierce Biotechnology), an assay based on the oxidation of Fe^2+ to Fe^3+ by H2O2 under acidic conditions. […]

## iron(III) chloride meso-tetrakis-2(N-(N-(2-methoxyethyl)acetamido)pyridyl porphyrin [Test porphyrin]
  kcat: 1.4e+07 M⁻¹ s⁻¹
